Results from US4129565A, “Isocarbostyril derivatives” (priority 1975, dated 1978).
Where a name gives a salt, the structure may show the parent alone.

Tests used:
[1] = tested on: reserpine-treated anaesthetized rats; assay: Intrinsic heart stimulating effect in reserpine-treated anaesthetized rats; format: in vivo, rat
Protocol: Intrinsic heart stimulating effects of the compounds of the invention were also determined using reserpine-treated anaesthetized rats.

[2] = target: T1, isolated guinea-pig atria (β1) (Cavia porcellus, UniProt H0W3H1); assay: β-adrenergic blocking effect: antagonism of isoproterenol stimulation in isolated guinea-pig atria
T1 construct: isolated guinea-pig atria; from tissue; host or cells: isolated guinea-pig atria
T1 sequence (H0W3H1 1-470): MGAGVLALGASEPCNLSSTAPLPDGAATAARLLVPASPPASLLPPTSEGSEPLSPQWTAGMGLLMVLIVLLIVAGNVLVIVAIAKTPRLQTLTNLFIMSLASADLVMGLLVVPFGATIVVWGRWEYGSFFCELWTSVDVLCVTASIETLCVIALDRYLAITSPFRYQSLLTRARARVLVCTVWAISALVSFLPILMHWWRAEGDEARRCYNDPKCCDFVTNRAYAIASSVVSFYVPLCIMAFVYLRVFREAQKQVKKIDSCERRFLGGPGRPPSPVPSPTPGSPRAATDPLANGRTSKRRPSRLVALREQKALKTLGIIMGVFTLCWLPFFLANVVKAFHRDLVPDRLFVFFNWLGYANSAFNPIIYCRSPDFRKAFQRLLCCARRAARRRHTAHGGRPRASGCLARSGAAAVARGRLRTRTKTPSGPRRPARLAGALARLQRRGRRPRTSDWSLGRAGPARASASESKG

[3] = target: T2, isolated guinea-pig tracheas (β2) (Cavia porcellus, UniProt Q8K4Z4); assay: β-adrenergic blocking effect: antagonism of isoproterenol stimulation in isolated guinea-pig tracheas
T2 construct: isolated guinea-pig tracheas; from tissue; host or cells: isolated guinea-pig tracheas
T2 sequence (Q8K4Z4 whole entry): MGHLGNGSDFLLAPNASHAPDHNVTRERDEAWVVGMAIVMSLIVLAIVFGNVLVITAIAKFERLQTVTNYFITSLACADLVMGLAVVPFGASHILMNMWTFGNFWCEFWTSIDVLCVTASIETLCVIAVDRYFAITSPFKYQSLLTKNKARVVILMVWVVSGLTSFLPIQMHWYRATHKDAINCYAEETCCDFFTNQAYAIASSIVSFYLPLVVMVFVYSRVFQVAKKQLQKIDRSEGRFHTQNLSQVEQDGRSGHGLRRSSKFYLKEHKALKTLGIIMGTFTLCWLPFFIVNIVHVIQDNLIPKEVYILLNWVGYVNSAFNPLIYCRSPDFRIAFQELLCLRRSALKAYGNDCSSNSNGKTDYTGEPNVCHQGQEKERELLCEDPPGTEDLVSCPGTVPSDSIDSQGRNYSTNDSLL

in vivo = conditions: mouse, iv
Protocol: With respect to acute toxicity of the isocarbostyril derivatives of the general formula (I), experiments were carried out to obtain the LD50 values of the compounds.

SMILES | Intrinsic heart stimulation [1] | β-adrenergic blocking activity (Relative potency) atria (β1) [2] | β-adrenergic blocking activity (Relative potency) trachea (β2) [3] | LD50 (in vivo)
CC(C)NCC(O)COc1cn(C)c(=O)c2ccccc12 (stereo not drawn) [Example 1, 4-(3-isopropylamino-2-hydroxy)propoxy-2-methylisocarbostyrilhydrochloride] | 0 | 3.2 | 0.44 | 105 mg/kg
Cn1cc(OCC(O)CNC(C)(C)C)c2ccccc2c1=O (stereo not drawn) [Example 2, 4-(3-tert.-butylamino-2-hydroxy)propoxy-2-methylisocarbostyril hydrochloride] | 0 | 2.5 | 0.52 | 119 mg/kg
CCC(C)NCC(O)COc1cn(C)c(=O)c2ccccc12 (stereo not drawn) [Example 3, 4-(3-sec.-butylamino-2-hydroxy)propoxy-2-methyl isocarbostyril hydrochloride] | 0 | 4.5 | 0.05 | 120 mg/kg
Cn1cc(OCC(O)CNCc2ccccc2)c2ccccc2c1=O (stereo not drawn) [Example 7, 4-(3-benzylamino-2-hydroxy)propoxy-2-methylisocarbostyril hydrochloride] | – | – | – | 120 mg/kg
Cn1cc(OCC(O)CNC2CCCCC2)c2ccccc2c1=O (stereo not drawn) [Example 8, 4-(3-cyclohexylamino-2-hydroxy)propoxy-2-methylisocarbostyril hydrochlorid] | – | – | – | 80 mg/kg
Cn1cc(OCC(O)CN2CCCCC2)c2ccccc2c1=O (stereo not drawn) [Example 9, 4-(3-piperidino-2-hydroxy)propoxy-2-methylisocarbostyril hydrochloride] | – | – | – | 200 mg/kg
CCCCN(C)CC(O)COc1cn(C)c(=O)c2ccccc12 (stereo not drawn) [Example 11, 4-(3-N-methyl-butylamino-2-hydroxy) propoxy-2-methyl isocarbostyril] | – | – | – | 143 mg/kg
CN1CCN(CC(O)COc2cn(C)c(=O)c3ccccc23)CC1 (stereo not drawn) [Example 12, 4-(3-N-methylpiperazino-2-hydroxy) propoxy-2-methyl isocarbostyril] | – | – | – | 270 mg/kg
CC[N+](C)(CC)CC(O)COc1cn(C)c(=O)c2ccccc12 (stereo not drawn) [Example 13, 4-(3-diethylamino-2-hydroxy)propoxy-2-methyl isocarbostyril methoiodide] | – | – | – | 15.2 mg/kg
CC(C)[N+](C)(C)CC(O)COc1cn(C)c(=O)c2ccccc12 (stereo not drawn) [Example 14] | – | – | – | < 20 mg/kg
CC[N+](C)(C)CC(O)COc1cn(C)c(=O)c2ccccc12 (stereo not drawn) [Example 15, 4-(3-dimethylamino-2-hydroxy)propoxy-2-methyl isocarbostyril ethoiodide] | – | – | – | 16.7 mg/kg
CC(C)NCC(O)COc1cccc2ccccc12 (stereo not drawn) [Propranolol, propranolol, reference compound] | 0 | – | – | –
CCCNCC(O)COc1cn(C)c(=O)c2ccccc12 (stereo not drawn) [R3=H, R4=n-C3 H7] | – | – | – | 115 mg/kg
CCCCNCC(O)COc1cn(C)c(=O)c2ccccc12 (stereo not drawn) [R3=H, R4=n-C4 H9] | – | – | – | 105 mg/kg
CCCCCCNCC(O)COc1cn(C)c(=O)c2ccccc12 (stereo not drawn) [R3=H, R4=n-C6 H13] | – | – | – | 69 mg/kg
